Data reported in US8134015B2, “Compound inhibiting in vivo phosphorous transport and medicine containing the same” (Kyowa Hakko Kirin Co., Ltd., priority 2003, dated 2012).

What follows are compounds tested against T1, rat NaPi-2b (Rattus norvegicus, UniProt Q9JJ09) (assay: Sodium-dependent phosphate uptake of Xenopus oocytes which expressed NaPi-2b (32P)). Conditions: Xenopus oocytes expressing rat NaPi-2b, 32P radioactive phosphorus; read-out: IC50 (phosphate uptake inhibitory activity).
T1 construct: expressed in transfected cells; host or cells: Xenopus oocytes injected with cRNA
T1 sequence (Q9JJ09 1-695): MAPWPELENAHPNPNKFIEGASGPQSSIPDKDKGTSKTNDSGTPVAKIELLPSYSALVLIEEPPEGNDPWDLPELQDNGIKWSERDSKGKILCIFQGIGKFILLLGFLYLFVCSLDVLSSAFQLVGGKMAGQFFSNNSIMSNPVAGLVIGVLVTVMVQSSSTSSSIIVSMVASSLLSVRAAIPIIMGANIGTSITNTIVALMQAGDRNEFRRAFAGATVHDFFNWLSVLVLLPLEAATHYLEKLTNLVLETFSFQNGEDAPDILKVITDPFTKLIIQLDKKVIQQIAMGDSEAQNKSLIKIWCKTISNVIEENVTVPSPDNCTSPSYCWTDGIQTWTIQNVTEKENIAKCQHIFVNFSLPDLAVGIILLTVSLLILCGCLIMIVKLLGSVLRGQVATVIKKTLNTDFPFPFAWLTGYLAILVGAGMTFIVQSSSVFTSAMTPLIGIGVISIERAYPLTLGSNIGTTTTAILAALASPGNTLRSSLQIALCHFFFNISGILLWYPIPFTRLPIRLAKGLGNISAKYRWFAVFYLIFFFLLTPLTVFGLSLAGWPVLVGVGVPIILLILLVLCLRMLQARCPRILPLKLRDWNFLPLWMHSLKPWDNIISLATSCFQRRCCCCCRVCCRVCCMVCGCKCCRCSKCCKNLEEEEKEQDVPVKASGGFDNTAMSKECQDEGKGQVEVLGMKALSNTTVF
Assay type: cell-based
Procedure, shortened: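 Rat small-intestine NaPi-2b cRNA injected into Xenopus oocytes, expressed for 2 days. Sodium-dependent phosphate uptake measured with 32P; % inhibition at 300 and 100 μM taken from the same inhibition curve.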

IC50 | SMILES
2150 nM | Cc1cc(C(=O)Nc2ccccc2C(=O)N/N=C/c2cccc(F)c2)c(C)o1 [Compound 514, 2,5-Dimethyl-furan-3-carboxylic acid [2-(3-fluoro-benzylidene-hydrazinocarbonyl)-phenyl]-amide]
1900 nM | Cc1cc(C(=O)Nc2ccccc2C(=O)N/N=C/c2ccc(F)cc2)c(C)o1 [Compound 515, 2,5-Dimethyl-furan-3-carboxylic acid [2-(4-fluoro-benzylidene-hydrazinocarbonyl)-phenyl]-amide]
2130 nM | Cc1cccc(/C=N/NC(=O)c2ccccc2NC(=O)c2cc(C)oc2C)c1 [Compound 516, 2,5-Dimethyl-furan-3-carboxylic acid [2-(3-methyl-benzylidene-hydrazinocarbonyl)-phenyl]-amide]
1710 nM | COc1ccc(C(=O)Nc2scc(C)c2C(=O)N/N=C/c2cccc(F)c2)cc1OC [Compound 517, N-[3-(3-Fluoro-benzylidene-hydrazinocarbonyl)-4-methyl-thiophen-2-yl]-3,4-dimethoxy-benzamide]
1520 nM | COc1ccc(C(=O)Nc2scc(C)c2C(=O)N/N=C/c2cccc(C)c2)cc1OC [Compound 518, 3,4-Dimethoxy-N-[4-methyl-3-(3-methyl-benzylidene-hydrazinocarbonyl)-thiophen-2-yl]-benzamide]
1720 nM | COc1ccc(C(=O)Nc2scc(C)c2C(=O)N/N=C/c2ccc(C)cc2)cc1OC [Compound 519, 3,4-Dimethoxy-N-[4-methyl-3-(4-methyl-benzylidene-hydrazinocarbonyl)-thiophen-2-yl]-benzamide]
1240 nM | COc1ccc(C(=O)Nc2scc(C)c2C(=O)N/N=C/c2ccc(C)c(C)c2)cc1OC [Compound 521, N-[3-(3,4-Dimethyl-benzylidene-hydrazinocarbonyl)-4-methyl-thiophen-2-yl]-3,4-dimethoxy-benzamide]
1090 nM | COc1ccc(C(=O)Nc2scc(C)c2C(=O)N/N=C/c2ccc(Cl)c(C(F)(F)F)c2)cc1OC [Compound 522, N-[3-(4-Chloro-3-trifluoromethyl-benzylidene-hydrazinocarbonyl)-4-methyl-thiophen-2-yl]-3,4-dimethoxy-benzamide]

Same assay, conditions: phosphate uptake, oocytes expressing rat NaPi-2b; 300 μM, determined from inhibition curve

SMILES | inhibition at 300 µM
CCN(CC)CCN(C)Cc1cccc(C(=O)Nc2c(C)csc2C(=O)N/N=C/c2ccc(OC)cc2)c1 [Compound 530, 3-{[(2-Diethylamino-ethyl)-methyl-amino]-methyl}-N-[2-(4-methoxy-benzylidene-hydrazinocarbonyl)-4-methyl-thiophen-3-yl]-benzamide] | 38.2%
COc1ccc(/C=N/NC(=O)c2scc(C)c2NC(=O)c2cccc(CN3CCC(N4CCCCC4)CC3)c2)cc1 [Compound 531, 3-[1,4′]Bipiperidinyl-1′-ylmethyl-N-[2-(4-methoxy-benzylidene-hydrazinocarbonyl)-4-methyl-thiophen-3-yl]-benzamide] | 35.7%
Cc1ccc(/C=N/NC(=O)c2scc(C)c2NC(=O)c2cccc(CN3CCN(CCO)CC3)c2)cc1C [Compound 532, N-[2-(3,4-Dimethyl-benzylidene-hydrazinocarbonyl)-4-methyl-thiophen-3-yl]-3-[4-(2-hydroxy-ethyl)-piperazin-1-ylmethyl]-benzamide] | 76%
Cc1ccc(/C=N/NC(=O)c2scc(C)c2NC(=O)c2cccc(CN3CCN(CCO)CC3)c2)cc1 [Compound 533, 3-[4-(2-Hydroxy-ethyl)-piperazin-1-ylmethyl]-N-[4-methyl-2-(4-methyl-benzylidene-hydrazinocarbonyl)-thiophen-3-yl]-benzamide] | 36.9%
CCN(CC)CCNCc1cccc(C(=O)Nc2c(C)csc2C(=O)N/N=C/c2ccc(C)cc2)c1 [Compound 537, 3-[(2-Diethylamino-ethylamino)-methyl]-N-[4-methyl-2-(4-methyl-benzylidene-hydrazinocarbonyl)-thiophen-3-yl]-benzamide] | 82%
CCN(CC)CCNCc1cccc(C(=O)Nc2c(C)csc2C(=O)N/N=C/c2ccc(Cl)c(C(F)(F)F)c2)c1 [Compound 539, N-[2-(4-Chloro-3-trifluoromethyl-benzylidene-hydrazinocarbonyl)-4-methyl-thiophen-3-yl]-3-[(2-diethylamino-ethylamino)-methyl]-benzamide] | 88.4%
Cc1ccc(/C=N/NC(=O)c2scc(C)c2NC(=O)c2cccc(CN(CC(C)O)CC(C)O)c2)cc1 (stereo not shown) [Compound 540, 3-{[Bis-(2-hydroxy-propyl)-amino]-methyl}-N-[4-methyl-2-(4-methyl-benzylidene-hydrazinocarbonyl)-thiophen-3-yl]-benzamide] | 38.4%
Cc1ccc(/C=N/NC(=O)c2scc(C)c2NC(=O)c2cccc(CN3CCC(O)CC3)c2)cc1C [Compound 541, N-[2-(3,4-Dimethyl-benzylidene-hydrazinocarbonyl)-4-methyl-thiophen-3-yl]-3-(4-hydroxy-piperidin-1-ylmethyl)-benzamide] | 32.2%

Second part, the compound after the results:

inhibition at 300 µM | SMILES
50.1% | Cc1ccc(/C=N/NC(=O)c2scc(C)c2NC(=O)c2cccc(CSc3nc[nH]n3)c2)cc1C [Compound 523, N-[2-(3,4-Dimethyl-benzylidene-hydrazinocarbonyl)-4-methyl-thiophen-3-yl]-3-(1H-[1,2,4]triazol-3-ylsulfanylmethyl)-benzamide]
42.8% | Cc1csc(C(=O)N/N=C/c2cccc(F)c2)c1NC(=O)c1cccc(CSc2nc[nH]n2)c1 [Compound 524, N-[2-(3-Fluoro-benzylidene-hydrazinocarbonyl)-4-methyl-thiophen-3-yl]-3-(1H-[1,2,4]triazol-3-ylsulfanylmethyl)-benzamide]
38.9% | Cc1ccc(/C=N/NC(=O)c2scc(C)c2NC(=O)c2cccc(CSCCCO)c2)cc1C [Compound 525, N-[2-(3,4-Dimethyl-benzylidene-hydrazinocarbonyl)-4-methyl-thiophen-3-yl]-3-(3-hydroxy-propylsulfanylmethyl)-benzamide]
40.2% | Cc1ccc(/C=N/NC(=O)c2scc(C)c2NC(=O)c2cccc(CSCCCO)c2)cc1 [Compound 526, 3-(3-Hydroxy-propylsulfanylmethyl)-N-[4-methyl-2-(4-methyl-benzylidene-hydrazinocarbonyl)-thiophen-3-yl]-benzamide]
40.9% | Cc1csc(C(=O)N/N=C/c2cccc(F)c2)c1NC(=O)c1cccc(CSCCCO)c1 [Compound 527, N-[2-(3-Fluoro-benzylidene-hydrazinocarbonyl)-4-methyl-thiophen-3-yl]-3-(3-hydroxy-propylsulfanylmethyl)-benzamide]
58.4% | CCN(CC)CCN(C)Cc1cccc(C(=O)Nc2c(C)csc2C(=O)N/N=C/c2ccc(F)cc2)c1 [Compound 528, 3-{[(2-Diethylamino-ethyl)-methyl-amino]-methyl}-N-[2-(4-fluoro-benzylidene-hydrazinocarbonyl)-4-methyl-thiophen-3-yl]-benzamide]
81% | CCN(CC)CCN(C)Cc1cccc(C(=O)Nc2c(C)csc2C(=O)N/N=C/c2cccc(F)c2)c1 [Compound 529, 3-{[(2-Diethylamino-ethyl)-methyl-amino]-methyl}-N-[2-(3-fluoro-benzylidene-hydrazinocarbonyl)-4-methyl-thiophen-3-yl]-benzamide]
43.8% | Cc1csc(C(=O)N/N=C/c2ccc(F)cc2)c1NC(=O)c1cccc(CN2CCN(CCO)CC2)c1 [Compound 534, N-[2-(4-Fluoro-benzylidene-hydrazinocarbonyl)-4-methyl-thiophen-3-yl]-3-[4-(2-hydroxy-ethyl)-piperazin-1-ylmethyl]-benzamide]
53% | Cc1csc(C(=O)N/N=C/c2cccc(F)c2)c1NC(=O)c1cccc(CN2CCN(CCO)CC2)c1 [Compound 535, N-[2-(3-Fluoro-benzylidene-hydrazinocarbonyl)-4-methyl-thiophen-3-yl]-3-[4-(2-hydroxy-ethyl)-piperazin-1-ylmethyl]-benzamide]
88.2% | CCN(CC)CCNCc1cccc(C(=O)Nc2c(C)csc2C(=O)N/N=C/c2ccc(C)c(C)c2)c1 [Compound 536, 3-[(2-Diethylamino-ethylamino)-methyl]-N-[2-(3,4-dimethyl-benzylidene-hydrazinocarbonyl)-4-methyl-thiophen-3-yl]-benzamide]
30.3% | CCN(CC)CCNCc1cccc(C(=O)Nc2c(C)csc2C(=O)N/N=C/c2cccc(F)c2)c1 [Compound 538, 3-[(2-Diethylamino-ethylamino)-methyl]-N-[2-(3-fluoro-benzylidene-hydrazinocarbonyl)-4-methyl-thiophen-3-yl]-benzamide]
41.1% | Cc1csc(C(=O)N/N=C/c2cccc(F)c2)c1NC(=O)c1cccc(CN2CCC(O)CC2)c1 [Compound 542, N-[2-(3-Fluoro-benzylidene-hydrazinocarbonyl)-4-methyl-thiophen-3-yl]-3-(4-hydroxy-piperidin-1-ylmethyl)-benzamide]
